# Patent publication US8592456B2 (4SC Discovery GmbH, priority 2011, dated 2013)
# Test system: PBMC (T cell proliferation)
# Assay: T cell proliferation assay, PHA-stimulated human PBMC (BrdU ELISA)
# Assay type: cell-based
# Conditions: PHA-stimulated human PBMC, 48 hours, BrdU; column D; activity classes 1-4; read-out: IC50 (Tcell proliferation)
# Summary of the method: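 BrdU ELISA readout of proliferation at 48 hours. Cells: human PBMC from healthy donors in 10% dialyzed FCS/RPMI1640, 1×10^5 per well, activated by 2 μg/ml phytohaemagglutinin in the presence of compound.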
row,SMILES,IC50 [nM]
1,"Cc1nnc(-c2c(-c3c(F)cccc3Cl)noc2-c2cnn(-c3ccccc3F)c2C(F)(F)F)s1 [Example I-12, 3-(2-chloro-6-fluorophenyl)-5-(1-(2-fluorophenyl)-5-(trifluoromethyl)-1H-pyrazol-4-yl)-4-(5-methyl-1,3,4-thiadiazol-2-yl)isoxazole]",100 to 1000
2,"COc1csc(-c2c(-c3c(F)cccc3Cl)noc2-c2cnn(-c3cccc(F)c3)c2C(F)(F)F)n1 [Example I-10, 3-(2-chloro-6-fluorophenyl)-5-(1-(3-fluorophenyl)-5-(trifluoromethyl)-1H-pyrazol-4-yl)-4-(4-methoxythiazol-2-yl)isoxazole]",10 to 100
3,"COc1cccc(Cl)c1-c1noc(-c2cnn(-c3cccnc3)c2C(F)(F)F)c1-c1cnco1 [IB-31, 3-(2-chloro-6-methoxyphenyl)-4-(oxazol-5-yl)-5-(1-(pyridin-3-yl)-5-(trifluoromethyl)-1H-pyrazol-4-yl)isoxazole]",1000 to 10000
4,"Cc1nnc(-c2c(-c3c(F)cccc3Cl)noc2-c2cnn(-c3cccc(Cl)c3)c2C(F)(F)F)o1 [IB-4, 2-(3-(2-chloro-6-fluorophenyl)-5-(1-(3-chlorophenyl)-5-(trifluoromethyl)-1H-pyrazol-4-yl)isoxazol-4-yl)-5-methyl-1,3,4-oxadiazole]",< 10
5,"Fc1cccc(Cl)c1-c1noc(-c2cnn(-c3ccccn3)c2C(F)(F)F)c1-c1nnco1 [IB-25, 2-(3-(2-chloro-6-fluorophenyl)-5-(1-(pyridin-2-yl)-5-(trifluoromethyl)-1H-pyrazol-4-yl)isoxazol-4-yl)-1,3,4-oxadiazole]",10 to 100

# Same assay, conditions: human PBMC, 2 μg/ml PHA, 48 hours, BrdU; read-out: D: IC50 (Tcell proliferation)
row,SMILES,IC50 [nM]
1,"CCOC(=O)c1c(-c2ccncc2F)noc1-c1cnn(-c2cccc(NC(C)=O)c2)c1C(F)(F)F [Example B-6, ethyl 5-(1-(3-acetamidophenyl)-5-(trifluoromethyl)-1H-pyrazol-4-yl)-3-(3-fluoropyridin-4-yl)isoxazole-4-carboxylate]",100 to 1000
2,"CSC(=O)c1c(-c2c(F)cccc2Cl)noc1-c1cnn(-c2cccnc2)c1C(F)(F)F [Example B-68, S-methyl 3-(2-chloro-6-fluorophenyl)-5-(1-(pyridin-3-yl)-5-(trifluoromethyl)-1H-pyrazol-4-yl)isoxazole-4-carbothioate]",10 to 100
3,"NNC(=O)c1c(-c2c(F)cccc2Cl)noc1-c1cnn(-c2cccc(F)c2)c1C(F)(F)F [Example 133, 3-(2-chloro-6-fluorophenyl)-5-(1-(3-fluorophenyl)-5-(trifluoromethyl)-1H-pyrazol-4-yl)isoxazole-4-carbohydrazide]",1000 to 10000
4,"CCOC(=O)c1c(-c2ccc(Cl)cc2Cl)noc1-c1cnn(-c2cccc(F)c2)c1C(F)(F)F [Example 112, ethyl 3-(2,4-dichlorophenyl)-5-(1-(3-fluorophenyl)-5-(trifluoromethyl)-1H-pyrazol-4-yl)isoxazole-4-carboxylate]",100 to 1000
5,"CCOC(=O)c1c(-c2c(F)cccc2Cl)noc1-c1cnn(-c2ccccn2)c1C(F)(F)F [Example B-84, ethyl 3-(2-chloro-6-fluorophenyl)-5-(1-(pyridin-2-yl)-5-(trifluoromethyl)-1H-pyrazol-4-yl)isoxazole-4-carboxylate]",< 10
6,"CCOC(=O)c1c(-c2ccncc2F)noc1-c1cnn(-c2ccccc2Cl)c1C(F)(F)F [Example B-13, ethyl 5-(1-(2-chlorophenyl)-5-(trifluoromethyl)-1H-pyrazol-4-yl)-3-(3-fluoropyridin-4-yl)isoxazole-4-carboxylate]",10 to 100
7,"CCOC(=O)c1c(-c2c(Cl)cncc2Cl)noc1-c1cnn(-c2ccccn2)c1C(F)(F)F [Example B-5, ethyl 3-(3,5-dichloropyridin-4-yl)-5-(1-(pyridin-2-yl)-5-(trifluoromethyl)-1H-pyrazol-4-yl)isoxazole-4-carboxylate]",1000 to 10000
8,"COC(=O)c1c(-c2c(F)cccc2Cl)noc1-c1cnn(-c2cccc(C(F)(F)F)c2)c1C(F)(F)F [Example 82, methyl 3-(2-chloro-6-fluorophenyl)-5-(5-(trifluoromethyl)-1-(3-(trifluoromethyl)phenyl)-1H-pyrazol-4-yl)isoxazole-4-carboxylate]",1000 to 10000
